From patent US5877210A, “Phosphotyrosine phosphatase inhibitors or phosphotyrosine kinase activators for controlling cellular proliferation” (priority 1995, dated 1999) come the findings set out here.

The assay concerns HL-60 cells. As to the kind of experiment: Anti-phosphotyrosine immunoblot. The format is cell-based, human.

Entries after “also recorded” stand apart in the source; their conditions may differ.

Regarding `Cc1occc(=O)c1[O-].Cc1occc(=O)c1[O-].[O]=[V+2]` [BMLOV, Bis(maltolato)oxovanadium (IV)], the tyrosine phosphorylation response result is recorded as “showed a tyrosine phosphorylation response; also recorded: strong tyrosine phosphorylation was observed”.
